{"source": "paper PMC6353850", "about": "“Supersensitive Odorant Receptor Underscores Pleiotropic Roles of Indoles in Mosquito Ecology” (Frontiers in Cellular Neuroscience, 2019)", "key": {"OR02-ORco [1]": {"test_system": "OR02-ORco", "set-up": "method as in Pelletier et al., 2010", "details": "Culex quinquefasciatus OR02-ORco; kairomone receptor; ref Pelletier et al., 2010; cited from earlier work"}, "AaegOR9 [2]": {"target": "T1, AaegOR9 (Aedes aegypti, UniProt Q177X5)", "T1 sequence (Q178U6 whole entry)": "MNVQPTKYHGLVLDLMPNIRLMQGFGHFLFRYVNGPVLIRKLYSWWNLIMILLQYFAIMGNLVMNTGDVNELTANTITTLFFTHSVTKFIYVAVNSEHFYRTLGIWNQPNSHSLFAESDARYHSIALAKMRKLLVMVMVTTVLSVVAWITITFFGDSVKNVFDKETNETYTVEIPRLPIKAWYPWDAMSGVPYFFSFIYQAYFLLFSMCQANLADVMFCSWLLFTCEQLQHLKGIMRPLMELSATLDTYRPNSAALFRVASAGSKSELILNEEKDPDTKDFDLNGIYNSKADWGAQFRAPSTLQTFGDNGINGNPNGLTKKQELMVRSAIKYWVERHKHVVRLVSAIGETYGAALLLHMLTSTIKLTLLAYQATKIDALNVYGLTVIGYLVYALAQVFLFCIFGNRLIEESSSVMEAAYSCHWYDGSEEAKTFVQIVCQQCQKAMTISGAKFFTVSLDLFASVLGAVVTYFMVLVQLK", "T1 sequence (Q177X5 entry or part of it)": "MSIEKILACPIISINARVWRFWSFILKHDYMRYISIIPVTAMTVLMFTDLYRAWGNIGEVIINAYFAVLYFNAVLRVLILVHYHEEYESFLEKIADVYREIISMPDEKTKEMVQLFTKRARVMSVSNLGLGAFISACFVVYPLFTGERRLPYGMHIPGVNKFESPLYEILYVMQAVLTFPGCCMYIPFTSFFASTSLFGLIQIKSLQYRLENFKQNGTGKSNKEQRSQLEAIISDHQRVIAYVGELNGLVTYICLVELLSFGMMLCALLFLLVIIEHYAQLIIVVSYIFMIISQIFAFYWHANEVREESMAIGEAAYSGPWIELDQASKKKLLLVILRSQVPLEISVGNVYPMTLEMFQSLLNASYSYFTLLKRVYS", "experiment": "Two-electrode voltage clamp of Xenopus oocytes expressing AaegOR9-ORco (tuning curve and concentration-response)", "format": "cell-based", "procedure": "The methodologies and protocols have been described in details elsewhere (Bohbot and Dickens, [2009]). AaegOr9 and Aaeg-ORco cRNAs (Bohbot et al., [2011]) were synthesized from linearized pSP64DV expression vectors using the mMESSAGE mMACHINE® SP6 kit (Life Technologies). Stage V-VII oocytes were harvested from Xenopus laevis females, mechanically separated, treated with collagenase (8 mg/mL, 30 min, 18°C) and rinsed in washing solution (96 mM NaCl, 2 mM KCl, 5 mM MgCl2 and 5 mM HEPES, pH 7.6). Oocytes were microinjected with 27.6 ng AaegOr9 and AaegORco cRNAs, incubated at 18°C for 3–4 days in ND96 solution (96 mM NaCl, 2 mM KCl, 5 mM MgCl2, 0.8 mM CaCl2 and 5 mM HEPES, pH 7.6), supplemented with 5% dialyzed horse serum, 50 μg/mL tetracycline, 100 μg/mL streptomycin and 550 μg/mL sodium pyruvate. Whole-cell currents were recorded using the two-microelectrode voltage-clamp technique. During recording sessions, the holding potential was maintained at −80 mV using an OC-725C oocyte clamp (Warner Instruments, LLC, Hamden, CT, USA). Oocytes placed in a RC-3Z oocyte recording chamber (Warner Instruments, LLC, Hamden, CT, USA) were exposed to odorants for 8 s. Current was allowed to return to baseline between odorant applications. Data acquisition and concentration-response analyses were carried out with a Digidata 1550A and the pCLAMP10 software (Molecular Devices, Sunnyvale, CA, USA), and analyzed using GraphPad Prism 7 (GraphPad Software Inc., La Jolla, CA, USA). Stock concentration of odorants (10^−2 M) were dissolved in ringer solution containing 2% dimethyl sulfoxide (DMSO) in order to solubilize the hydrophobic indolic compounds.\nThe response profile was established using multiple sessions, each including six compounds at a time and indole as an internal reference. […] All the response values were normalized to the indole reference in each recording session (Supplementary Figure 1).\nFor the establishment of the concentration-response curves, oocytes were exposed to increasing concentrations of indole, skatole and indole-3-carboxaldehyde (I3C; Supplementary Figure 2). Quantitative characterization of OR sensitivity was estimated using the averaged effective concentration at 50% of the maximal response (EC50) over the sample population. The data to establish the concentration response curve and EC50 of AaegOR10-skatole was extracted from a previous study (Bohbot and Dickens, [2012]).\nWe also included indole and skatole as references (Bohbot et al., [2011]). The screen was carried out using a low odorant concentration (500 nM) in order to mitigate the caveats associated with high ligand concentrations, including receptor adaptation, antagonist effects and technical artifacts such as broad molecular receptive ranges (Bohbot and Pitts, [2015])."}, "OR02-ORco [3]": {"test_system": "OR02-ORco", "set-up": "method as in Wang et al., 2010", "details": "Anopheles gambiae OR02-ORco; kairomone receptor; ref Wang et al., 2010; cited from earlier work"}, "AaegOR9 [4]": {"target": "T1, AaegOR9", "set-up": "method as in Bohbot et al., 2011", "details": "ref Bohbot et al., 2011; cited from earlier work"}, "OR02-ORco [5]": {"test_system": "OR02-ORco", "set-up": "method as in Bohbot et al., 2011", "details": "Aedes aegypti OR02-ORco; kairomone receptor; ref Bohbot et al., 2011; cited from earlier work"}}, "note": "Where two headings read alike, the source gives them in different places."}
{"smiles": "c1ccc2[nH]ccc2c1", "note": "[indole, 1H-indole]", "values": [{"measurement": "EC50", "setting": "OR02-ORco [1]", "result": 280, "unit": "nM"}, {"measurement": "Ligand potency in AaegOR9 tuning curve (in words)", "setting": "AaegOR9 [2]; 500 nM odorant, panel of 31 indole derivatives", "result": "next most potent ligands"}, {"measurement": "Rank according to potency (No.)", "setting": "AaegOR9 [2]; AaegOR9 tuning curve of Figure 1, 500 nM, 1 = most potent of 31", "result": 3}, {"measurement": "EC50", "setting": "OR02-ORco [3]", "result": 167, "unit": "nM"}, {"measurement": "Concentration range activating AaegOR9", "setting": "AaegOR9 [4]", "result": "low micromolar"}, {"measurement": "EC50", "setting": "OR02-ORco [5]", "result": 370, "unit": "nM"}]}
